The results in this text go back to US5077407A, “Substituted 2-[monoannelated (3,4-,4,5-, and 5,6-) pyridylalkylenesulfinyl]benzimidazoles” (The Upjohn Company, priority 1988, dated 1991).

Like-named read-outs stand apart in the source and are kept apart here.

Experiment [1] concerns the target T1, (H^+ -K^+)ATP-ase (Rattus norvegicus, UniProt P09626).
T1 construct: from tissue; host or cells: stomach of the living rat (subcutaneous dosing)
Briefly: in vivo inactivation of (H+-K+)ATP-ase in the rat. The following applies: for t1/2 of inhibition of rat gastric (H+ + K+) ATPase activity (duration of action): 10 mg/kg subcutaneously. An excerpt:
Certain of the compounds of this invention are preferred because of their long duration of action when administered parenterally (e.g., subcutaneously).

The subject of experiment [2] is gastric acid secretion. As to the kind of experiment: rat gastric antisecretory assay. The experiment is classed as in vivo.
Experiment [3] deals with acid secretion in isolated gastric glands. As to the kind of experiment: inhibition of acid secretion in isolated gastric glands of the rabbit. The experiment is classed as cell-based. The following applies: Oryctolagus cuniculus, read-out: ID50, inhibition of acid secretion.
In experiment [4] the target is T2, gastric(H^+ -K^+)ATP-ase (Sus scrofa, UniProt P19156).
T2 construct: isolated hog gastric membranes; from tissue; host or cells: hog gastric membranes
As to the kind of experiment: inhibition of K+-dependent ATP hydrolysis by isolated hog gastric membranes enriched with gastric (H+-K+)ATP-ase. The note with it: read-out: ED50, inhibition of K+-dependent ATP hydrolysis. The experiment is classed as biochemical.

T1 sequence (P09626 2-1033 limits assumed): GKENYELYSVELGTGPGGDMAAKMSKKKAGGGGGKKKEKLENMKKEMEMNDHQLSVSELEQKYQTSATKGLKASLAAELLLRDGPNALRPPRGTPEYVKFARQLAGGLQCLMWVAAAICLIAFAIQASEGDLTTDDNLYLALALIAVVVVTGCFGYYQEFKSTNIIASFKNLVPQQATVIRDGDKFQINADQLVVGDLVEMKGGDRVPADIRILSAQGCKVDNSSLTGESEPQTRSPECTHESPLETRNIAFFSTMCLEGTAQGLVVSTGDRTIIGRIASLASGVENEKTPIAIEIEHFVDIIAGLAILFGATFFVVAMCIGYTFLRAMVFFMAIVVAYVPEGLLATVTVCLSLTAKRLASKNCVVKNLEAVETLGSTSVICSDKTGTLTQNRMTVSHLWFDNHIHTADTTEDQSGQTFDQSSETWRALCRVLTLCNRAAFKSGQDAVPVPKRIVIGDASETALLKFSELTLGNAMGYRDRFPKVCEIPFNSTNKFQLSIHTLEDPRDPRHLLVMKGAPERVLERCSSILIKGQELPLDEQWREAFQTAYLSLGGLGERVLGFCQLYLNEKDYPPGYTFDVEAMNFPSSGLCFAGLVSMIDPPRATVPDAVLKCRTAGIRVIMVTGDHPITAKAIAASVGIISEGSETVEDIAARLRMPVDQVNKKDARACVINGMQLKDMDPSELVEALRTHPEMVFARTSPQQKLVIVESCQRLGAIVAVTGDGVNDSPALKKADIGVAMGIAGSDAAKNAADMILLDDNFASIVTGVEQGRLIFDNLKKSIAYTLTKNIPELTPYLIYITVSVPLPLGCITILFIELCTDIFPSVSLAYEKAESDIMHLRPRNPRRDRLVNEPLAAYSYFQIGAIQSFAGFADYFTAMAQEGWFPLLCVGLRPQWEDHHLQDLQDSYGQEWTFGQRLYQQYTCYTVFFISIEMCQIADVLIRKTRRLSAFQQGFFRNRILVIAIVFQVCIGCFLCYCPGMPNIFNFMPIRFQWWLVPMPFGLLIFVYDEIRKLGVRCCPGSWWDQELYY
T1 sequence (P18598 whole entry partner): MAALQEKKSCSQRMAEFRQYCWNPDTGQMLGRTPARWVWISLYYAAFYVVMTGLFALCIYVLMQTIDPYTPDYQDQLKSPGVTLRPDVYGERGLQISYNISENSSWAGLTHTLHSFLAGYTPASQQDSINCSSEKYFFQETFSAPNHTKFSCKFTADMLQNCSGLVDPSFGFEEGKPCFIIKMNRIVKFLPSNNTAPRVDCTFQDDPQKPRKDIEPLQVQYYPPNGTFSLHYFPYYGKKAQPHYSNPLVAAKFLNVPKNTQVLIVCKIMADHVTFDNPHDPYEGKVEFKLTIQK
T2 sequence (P19156 2-1034 limits assumed): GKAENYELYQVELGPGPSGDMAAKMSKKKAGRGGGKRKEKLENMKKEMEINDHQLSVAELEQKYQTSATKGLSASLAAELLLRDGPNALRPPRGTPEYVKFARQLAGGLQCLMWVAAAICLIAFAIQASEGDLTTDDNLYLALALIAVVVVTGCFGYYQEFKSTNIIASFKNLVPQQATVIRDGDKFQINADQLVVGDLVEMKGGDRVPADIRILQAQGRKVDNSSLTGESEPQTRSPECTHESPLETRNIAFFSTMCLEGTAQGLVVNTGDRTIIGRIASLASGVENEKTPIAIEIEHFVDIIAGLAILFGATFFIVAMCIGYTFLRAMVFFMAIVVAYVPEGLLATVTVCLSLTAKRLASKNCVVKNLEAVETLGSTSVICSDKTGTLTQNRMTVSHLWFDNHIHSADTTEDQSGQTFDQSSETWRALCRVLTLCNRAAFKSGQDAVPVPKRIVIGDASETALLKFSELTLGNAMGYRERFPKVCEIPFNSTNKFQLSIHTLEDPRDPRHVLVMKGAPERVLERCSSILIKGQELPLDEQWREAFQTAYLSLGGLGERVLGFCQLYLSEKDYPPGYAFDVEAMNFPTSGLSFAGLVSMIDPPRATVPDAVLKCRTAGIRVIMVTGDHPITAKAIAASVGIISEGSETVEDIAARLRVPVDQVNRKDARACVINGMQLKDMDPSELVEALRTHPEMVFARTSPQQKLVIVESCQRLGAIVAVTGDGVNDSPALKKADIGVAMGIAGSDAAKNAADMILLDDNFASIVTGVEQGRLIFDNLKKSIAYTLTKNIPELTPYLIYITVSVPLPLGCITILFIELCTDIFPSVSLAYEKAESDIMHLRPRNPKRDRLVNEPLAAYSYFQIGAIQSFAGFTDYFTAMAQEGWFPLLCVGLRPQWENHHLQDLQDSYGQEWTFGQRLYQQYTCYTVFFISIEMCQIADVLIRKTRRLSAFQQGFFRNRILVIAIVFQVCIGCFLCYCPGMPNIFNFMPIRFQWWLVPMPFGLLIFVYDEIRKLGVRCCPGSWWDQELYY
T2 sequence (P18434 whole entry partner): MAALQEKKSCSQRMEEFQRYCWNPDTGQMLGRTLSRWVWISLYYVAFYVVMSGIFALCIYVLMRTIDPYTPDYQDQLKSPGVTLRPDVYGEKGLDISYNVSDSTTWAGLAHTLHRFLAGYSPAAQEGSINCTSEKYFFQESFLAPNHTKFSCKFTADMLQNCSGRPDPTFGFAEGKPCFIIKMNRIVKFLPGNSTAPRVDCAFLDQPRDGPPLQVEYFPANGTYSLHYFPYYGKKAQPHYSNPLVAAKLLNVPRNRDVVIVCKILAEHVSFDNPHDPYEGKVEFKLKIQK

In the case of `[O-][S+](Cc1nccc2c1CCCC2)c1nc2ccccc2[nH]1` (stereo not shown) [2-[(5,6,7,8-tetrahydroisoquinolin-1-ylmethyl)sulfinyl]benzimidazole], in experiment [1], the “t1/2 of inhibition of rat gastric (H+ + K+) ATPase activity (duration of action)” value was found to be 96 h.

As for `COc1ccc2nc([S+]([O-])Cc3nccc4c3CCCC4)[nH]c2c1` (stereo not shown) [Example 4, 2-[(5,6,7,8-Tetrahydroisoquinolin-1-yl)methyl]sulfinyl-5-methoxybenzimidazole], the ED50 in experiment [2] (sc, administered subcutaneously, read-out: ED50, inhibition of gastric acid secretion) is 1.8 mg/kg. In addition, the IC50 in experiment [3] came to 0.8 µM.

In the case of `COc1ccc2nc([S+]([O-])Cc3nccc4c3CCCO4)[nH]c2c1` (stereo not shown) [Example 6, 2-[(6-Azachroman-5-yl)methyl]sulfinyl-5-methoxybenzimidazole], in experiment [4], the IC50 worked out at 10 µM. For the same compound, the ED50 in experiment [2] (administered intraduodenally, read-out: ED50, rat gastric antisecretory assay) is 0.7 mg/kg; in experiment [1] (sc, administered subcutaneously), 1 mg/kg.

With `[O-][S+](Cc1nccc2c1CCCS2)c1nc2ccccc2[nH]1` (stereo not shown) [Example 10, 2-[(5-Thia-5,6,7,8-tetrahydroisoquinolin-1-ylmethyl)sulfinyl]-benzimidazole], the “t1/2 of inhibition of rat gastric (H+ + K+) ATPase activity (duration of action)” value in experiment [1] was 48 h.
